What all share (format): cell-based, Hepatitis C virus (HCV)
The subject of assay [1] is bk:2B bla chimeric replicon bearing change at residue 392. The assay can be described thus: β-lactamase reporter replicon assay, bk:2B bla chimeric replicon with change at residue 392. The conditions noted are these: at the EC95 for 2′C-methyladenosine; replicon not robust enough for IC50 determination. On the procedure: (§1) Selection of persistently replication cells lines expressing β-lactamase, using bla:2b chimeric replicons each harboring a different mutation (N24S, M31I, I392L) defined in the Neo^r selection studies described above, was performed in the enhanced replication Huh7 derived cell line MR2. (Murray et al., J. of Virology, 77:2928-2935, 2003.) To generate RNA for transfection, plasmids were linearized by digestion of an XbaI site distal to the replicon sequences. RNA was generated using MEGAscript™ (Ambion, Austin, Tex.) and quantitated by UV absorbance.
(§2) On day 4 cells from one flask were collected, counted, and seeded into a 96 well Cytostar plate at a density of 7,500 cells/well in the presence of 1 μM clavulonic acid. […] Simultaneously, the other flasks were analyzed for β-lactamase activity to verify both that activity from a non-replicating control sub-genomic replicon was undetectable, and establish the day 4 replication activity of the test replicons. […] Cells with drug were incubated for two days, and analyzed as described in Example 4.
(§3) Medium was removed by aspiration and cells were stained for 2 hours with CCF4-AM (Invitrogen Corp., Carlsbad, Calif.) in DMEM supplemented with 25 mM HEPES, pH 8.0. Fluorescence due to β-lactamase activity was measured through excitation at 405 nm, followed by measurement of the emission at 460 nm using a CytoFluor 4000 fluorescence plate reader. […]

The target of the next assay is BK NS5a268S-2bN24S. Kind of assay: β-lactamase reporter replicon assay, BK NS5a268S-2bN24S chimeric replicon. The conditions noted are these: BK NS5a268S-2bN24S replicon. On the procedure: (§4) Selection of persistently replication cells lines expressing β-lactamase, using bla:2b chimeric replicons each harboring a different mutation (N24S, M31I, I392L) defined in the Neo^r selection studies described above, was performed in the enhanced replication Huh7 derived cell line MR2. (Murray et al., J. of Virology, 77:2928-2935, 2003.) To generate RNA for transfection, plasmids were linearized by digestion of an XbaI site distal to the replicon sequences. RNA was generated using MEGAscript™ (Ambion, Austin, Tex.) and quantitated by UV absorbance. […]
(§5) The next morning cells were expanded into two T75 flasks and grown for an additional three days. A duplicate well for each replicon construct was analyzed for β-lactamase activity to verify that the transfection efficiency was >90%.
(§6) On day 4 cells from one flask were collected, counted, and seeded into a 96 well Cytostar plate at a density of 7,500 cells/well in the presence of 1 μM clavulonic acid. […] Simultaneously, the other flasks were analyzed for β-lactamase activity to verify both that activity from a non-replicating control sub-genomic replicon was undetectable, and establish the day 4 replication activity of the test replicons. […] Cells with drug were incubated for two days, and analyzed as described in Example 4. […]
(In general: A replicon is a self-replicating genome or part of one, used to study replication in cells.)

For the next assay, the target named is BK-2b N24S/L392I. The assay can be described thus: β-lactamase reporter replicon assay, BK-2b N24S/L392I chimeric replicon. The conditions noted are these: BK-2b N24S/L392I replicon. On the procedure: as §4, §5, §6
Another assay addresses BK-2bM31I. Kind of assay: β-lactamase reporter replicon assay, BK-2bM31I chimeric replicon. The conditions noted are these: BK-2bM31I replicon in MR2 (Huh7 derived) cells, two days with drug, percent of DMSO control, 4 parameter fit. As to the method:
as §1
(§7) MR2 was maintained in Dulbecco's modified Eagle's medium (DMEM) supplemented with 10% fetal bovine serum, nonessential amino acids, 2 mM GlutaMAX, and Penn/Strep (Invitrogen Corp., Carlsbad, Calif.). Cells were seeded the night prior to transfection at a density of 300,000 cells per well in a 6-well dish. A mixture of 5 μg RNA, 12 μl of DMRE-C (Invitrogen Corp., Carlsbad, Calif.), and 2 ml of Opti-Mem (Invitrogen Corp., Carlsbad, Calif.) media was prepared and allowed to sit for 10 minutes. During this time media was removed from the MR2 cells, cells were washed once with Opti-Mem, then the RNA:DMRE-C mixture was added dropwise, and incubated for ˜8 hours. Transfection media was removed by aspiration, and replaced with 2 ml DMEM.

For assay [2], the system named is bk:2B bla chimeric replicon bearing change at residue 24. The assay can be described thus: β-lactamase reporter replicon assay, bk:2B bla chimeric replicon with change at residue 24. The note with it: at the EC95 for 2′C-methyladenosine; replicon not robust enough for IC50 determination. On the procedure:
as §1, §2, §3

In the next assay the target is Con1-2bM31I. The assay can be described thus: β-lactamase reporter replicon assay, Con1-2bM31I chimeric replicon. The note with it: Con1-2bM31I replicon in MR2 (Huh7 derived) cells, two days with drug, percent of DMSO control, 4 parameter fit. On the procedure: as §1, §7

Here are results for one compound from US8354518B2, “HCV replicons containing NS5B from genotype 2B” (Merck Sharp & Dohme Corp., priority 2003, dated 2013).

With `C[C@@]1(O)[C@H](O)[C@@H](CO)O[C@H]1n1cnc2c(N)ncnc21` [2′C-methyladenosine], the “inhibition of limited replication” value in assay [1] and in assay [2] was “could be inhibited” in each case. The EC50 was 982 nM on BK NS5a268S-2bN24S, 185 nM on BK-2b N24S/L392I, 667 nM on BK-2bM31I and 407 nM at Con1-2bM31I.

For orientation: EC50 means the concentration that produces a half-maximal response.
